In patent US20230139826A1 (NONO INC., priority 2020, published 2023):
Residues, ends and D or L forms follow the SMILES beside them.

Experiments:
[1] = Nerinetide plasma levels in ESCAPE-NA1 subjects with and without alteplase; assay type: in vivo, human
Method: All patients had standard assessments of demographic characteristics, medical history, laboratory values and stroke severity (NIHSS score). In some patients, up to 6 consecutive blood samples were drawn following dosing for pharmacokinetic analysis of nerinetide levels.
Nerinetide plasma levels were obtained from 22 subjects in ESCPAE-NA1 and previously acquired data from 8 healthy volunteer subjects receiving a single dose of 2.6 mg/kg nerinetide intravenously. Time 0 is a preinfusion time-point. […] The bars represent standard error of the mean. […] In the presence of alteplase, nerinetide's maximum level was reduced by more than 50% with decline to background level by 60 minutes. […] (p=0.0119, mixed effects linear regression).

PDZ2 domain of PSD-95 = PDZ2 domain of PSD-95 (Homo sapiens, UniProt P78352); test: Direct ELISA of biotinylated peptides to PSD-95 PDZ2; assay type: binding; details: biotinylated peptides, triplicate; read-out: EC50, direct ELISA binding to PSD-95 PDZ2 domain
Method: ELISA plates were coated with 1 ug/ml PSD95PDZ2 in 50 mM bicarbonate buffer overnight at 4 C. The plate was blocked in 2%BSA in PBST (0.05%) for 2 h at room temperature. It was then incubated with biotinylated ligand (nerinetide, D-tat-L2B9c or D-Tat-L-AA) at the indicated concentrations (FIG. 4A) and incubated overnight at 4 C. After washing with PBS-T, the plate was incubated for 30 min with (1:3000) SA-HRP, washed again, and incubated with TMB solution for 10 min. The reaction was stopped with 100 ul H2504. Absorbance was determined at 450 nm with the synergy H1 reader.

[2] = In-vivo pharmacokinetic analysis in rats; details: rat
Method: Since the effect of nerinetide in the ESCAPE-NA1 trial was negated by alteplase, we next evaluated the effects of alteplase on pharmacokinetics (PK) of nerinetide in rats. Alteplase was administered at 0.9 mg/kg (human dose) and at 5.4 mg/kg (6 times the human dose) in an infusion that simulated the clinical protocol (10% bolus followed by a 60 min infusion of the remainder). Nerinetide was administered as an intravenous bolus at the start of the alteplase infusion at 7.6 mg/kg.
The goal of these study was to evaluate nerinetide PK parameter changes when in the presence of circulating rt-PA and plasmin. Male naïve rats received an intravenous administration of either nerinetide alone, nerinetide plus rt-PA (0.9 mg/kg) or nerinetide plus rt-PA (5.4 mg/kg). Sample collection was performed pre-dose and 0 min, 5 min, 10 min, 20 min, 50 min post-dose. At each time point, approximately 300 uL of blood was sampled from each animal using a fresh syringe. Blood samples were collected in previously prepared Eppendorf tubes [30 ul of EDTA 2.5%] and centrifuged for 20 minutes to separate plasma and cell components.
Plasma samples were stored at −80° C. until analyzed.
Changes in peptide concentration were analyzed using a two-way repeated measures ANOVA, followed by the Sidak correction for multiple comparisons. The pharmacokinetic (PK) parameters of peak plasma concentration (Cmax) and the area under the plasma concentration-time curve from 0 to last measured concentration (AUC) were obtained with PKsolver Software (USA) using a non-compartmental analysis and employing a linear interpolation. For stroke studies, differences between groups were tested using a One-way ANOVA with a Tukey's correction for multiple comparisons. […] Values for animals experiencing premature death due to any reason including subarachnoid hemorrhage or hemorrhagic transformation were imputed to reflect the worst neurological score and the maximum stroke volume achieved across all animals.

[3] = PK dose-separation study in cynomolgus macaques; assay type: in vivo, cynomolgus macaques (Macaca fascicularis); details: macaque
Method: We conducted further PK studies to probe the necessary dose-separation interval to mitigate degradation. These studies were conducted in cynomolgus macaques (Macaca fascicularis) to maximize their relevance to humans. Nerinetide was given as a 10-minute intravenous infusion at a dose of 2.6 mg/kg. This dosing regimen was neuroprotective in macaques exposed to stroke by LVO (Cook et al., Nature 483, 213-217 (2012)) and was used in both the Phase 2 ENACT trial (Lancet Neurol 11, 942-950 (2012)) and the ESCAPE-NA1 trial (Lancet 395, 878-887 (2020)). We examined the scenarios in which alteplase administration was started simultaneously with the nerinetide infusion start, at the end of the 10-minute nerinetide infusion, or 10 minutes after the end of nerinetide infusion. Alteplase (1 mg/kg) was administered through a separate intravenous line as a 10% bolus, followed by an infusion of the remaining 90% over 1 hour, as per its clinical use.

[4] = In-vitro peptide degradation assay in human plasma with rt-PA or TNK
Method: To determine nerinetide stability in the presence of rt-PA in plasma, we use an in-vitro peptide content analysis by HPLC. In brief, Nerinetide or D-Tat-L-2B9c were spiked into rat or human plasma at a concentration of 65 ug/ml. rt-PA was added after the baseline time-point was collected, at the specified concentrations. rt-PA administration followed the clinical dosing approach [10% bolus dose followed by 60-mins infusion (90% of the dose)], using a Harvard apparatus pump. Sample collection following IV bolus was performed at 5 min, 15 min, 30 min and 45 min post-dose. At each time point, approximately 100 uL of plasma was collected from each vial using a fresh syringe. Plasma was then collected and stored at -80° C. until analyzed.
Nerinetide or D-Tat-L2B9c was extracted by precipitation with 1M perchloric acid. All analyses were performed on an Agilent 1260 Infinity Quaternary LC System (Agilent Technologies, Santa Clara, Calif., USA) and on a 25 cm [YMAA12S052546WT] C-18 RP-HPLC column (Agilent Technologies, Santa Clara, Calif., USA). The column was equilibrated with 10% acetonitrile with 0.1% TFA at 40° C. The eluent flow was 1.5 ml/min (gradient from 10% to 35% acetonitrile in 0.1% TFA) The UV trace was recorded at 220 nm. Concentrations of nerinetide or D-Tat-L-2B9c were derived from calibration standards obtained by spiking the agent into plasma.

[5] = nerinetide 7.6 mg/kg iv bolus with alteplase 0.9 mg/kg (human dose)
[6] = nerinetide 7.6 mg/kg iv bolus with alteplase 5.4 mg/kg
[7] = alteplase started at the end of the nerinetide infusion

Sequence of PDZ2 domain of PSD-95 (P78352 160-246 limits assumed): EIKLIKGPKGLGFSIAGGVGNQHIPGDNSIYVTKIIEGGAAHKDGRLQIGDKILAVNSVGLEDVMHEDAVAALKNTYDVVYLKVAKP

SMILES: CC[C@H](C)[C@H](NC(=O)[C@H](CO)NC(=O)[C@H](CO)NC(=O)[C@H](CC(C)C)NC(=O)[C@H](CCCCN)NC(=O)[C@H](CCCN=C(N)N)NC(=O)[C@H](CCCN=C(N)N)NC(=O)[C@H](CCCN=C(N)N)NC(=O)[C@H](CCC(N)=O)NC(=O)[C@H](CCCN=C(N)N)NC(=O)[C@H](CCCN=C(N)N)NC(=O)[C@H](CCCCN)NC(=O)[C@H](CCCCN)NC(=O)[C@H](CCCN=C(N)N)NC(=O)CNC(=O)[C@@H](N)Cc1ccc(O)cc1)C(=O)N[C@@H](CCC(=O)O)C(=O)N[C@@H](CO)C(=O)N[C@@H](CC(=O)O)C(=O)N[C@H](C(=O)O)C(C)C [Nerinetide] (H-YGRKKRRQRRRKLSSIESDV-OH)
- time of decline of plasma level to background ([1]; absence of alteplase): about 120 minutes
- time at which plasma peak levels were reached ([1]; absence of alteplase, 2.6 mg/kg iv): ten
- AUC change ([1]; presence of alteplase): similarly reduced
- reduction of maximum plasma level ([1]; presence of alteplase): more than 50%
- time of decline of plasma level to background ([1]; presence of alteplase): 60 min
- EC50 (PDZ2 domain of PSD-95): 93 nM
- half-life ([2]; male, plasma, intravenous, 7.6 mg/kg, human equivalent concentrations): 5 to 10 min
- change of AUC of nerinetide [2, 5]: non-significant reduction
- change of Cmax of nerinetide [2, 5]: non-significant reduction
- lowering of the mean AUC of nerinetide [2, 6]: 44%
- lowering of the mean Cmax of nerinetide [2, 6]: 49.5%
- degradation of Cmax or AUC by alteplase ([3]; alteplase 10 minutes after the end of the 10-min nerinetide infusion): eliminated degradation of Cmax or AUC
- reduction in the AUC of nerinetide [3, 7]: 32.3%
- reduction of the Cmax of nerinetide [3, 7]: 23.1%
- reduction in the AUC of nerinetide ([3]; alteplase started simultaneously): 53.9%
- reduction of the Cmax of nerinetide ([3]; nerinetide 2.6 mg/kg 10-minute infusion, alteplase 1 mg/kg started simultaneously): 47.4%
- elimination in human plasma with tenecteplase (TNK) ([4]; TNK 6.25 ug/ml): rapid elimination
- stability alone in human plasma ([4]; absence of alteplase): stable
- degradation in human plasma with alteplase ([4]; rt-PA 135 ug/ml): rapid degradation
